# Measurements taken from US4031218A, “7-(2,3-Dihydroxypropyl-1,3-di-n-propylxanthine and a pharmaceutical composition containing same useful as a bronchial muscle relaxant” (Mallinckrodt, Inc., priority 1976, dated 1977).
# How the values were obtained:
# [1] = Kattus et al. 1951; cited from earlier work
# [2] = Intravenous emetic study in dogs (ED50); format: in vivo, dog; conditions: dog, in vivo, iv; read-out: ED50 (median emetic dose), I.V. Dogs
# Method: (§1) Twelve adult mongrel dogs of either sex were employed to determine the median emetic dose (ED50) of all five experimental compounds after intravenous administration. […] Onset, frequency, and duration of emetic episodes were also recorded. The dogs were not fasted, were allowed at least 2 days rest between doses, and no animal received the same compound twice in succession. […] ED50 values were calculated according to the method of Litchfield and Wilcoxon (1949).
# dogs [3] = assay: Intravenous emetic study in dogs (ED50); format: in vivo, dog; conditions: estimated at HBD
# Method: as §1
# dogs [4] = assay: Oral minimum emetic dose in dogs; format: in vivo, dog
# Method: 2. Oral Minimum Emetic Dose
# The minimum dose of each compound which causes emesis after oral administration was estimated in a group of five adult mongrel dogs of either sex. Logarithmically increasing or decreasing (depending upon response) doses of each compound were administered orally via a flexible stomach tube. The compounds were dissolved in distilled water in concentrations to allow a constant volume dose of 5 ml/kg. […] Onset, frequency, and duration of emetic episodes as well as signs of CNS stimulation were also recorded.
# [5] = Summary of relative molar activities (means and therapeutic efficacy); conditions: mean bronchodilator (therapeutic) activity divided by mean acute toxic and side effect activity
# Text: ^g - Mean bronchodilator (therapeutic) activity divided by mean acute
# human bronchodilator = assay: Estimated human bronchodilator dose equivalent to recommended theophylline dose; conditions: based on recommended theophylline dose and relative bronchodilator activities
# Text: Experimental results are summarized in Table I wherein pharmacologic and toxicologic activities relative to that of theophylline are expressed on a molar basis.
# ^a - Dose: Based on the recommended dose for theophylline and the
# relative activities in the bronchodilator experiments.
# dogs [6] = conditions: dog, in vivo, iv
# Method: Intravenous Cardiovascular Evaluation in Dogs
# Thirteen adult mongrel dogs of either sex ranging in weight from 16.7 to 25.0 kg were employed to compare the overall intravenous cardiovascular activity of the five experimental compounds.
# Dogs were anesthetized with pentobarbital sodium, 30-35 mg/kg i.v., fitted with a cuffed endotracheal tube, and ventilated with a Harvard Animal Respiratory Pump. A femoral vein was cannulated for i.v. drug administration. The left common carotid artery was cannulated and the cannula tip advanced into the aortic arch. A median sternotomy was performed and appropriately sized electromagnetic blood flow transducers (Biotronex) were placed around the ascending aorta and left anterior descending coronary artery. These procedures allowed continuous recording or calculation of the following parameters:
# a. Mean Arterial Pressure (MAP); from the aortic cannula.
# b. Heart Rate (HR); electronically from pulsatile ascending aortic flow.
# c. Cardiac Output (CO); mean ascending aortic flow.
# d. Myocardial Contractile Force (MCF); dQ/dt, the first derivative of maximum aortic flow rate, also known as peak aortic flow acceleration.
# e. Stroke Volume (SV); quotient of CO/HR.
# f. Cardiac Work (CW); product of CO X MAP.
# g. Total Peripheral Resistance (TPR); quotient of MAP/CO.
# h. Coronary Flow (CF); mean left anterior descending (LAD) coronary flow.
# i. Coronary Resistance (CR); quotient of MAP/CF.
# Logarithmically increasing doses of the appropriate compound were injected at 20-minute intervals. Responses were measured at 1, 2, 5, 10, 15 and 20 minutes after each dose and the average response during that period was calculated. Theophylline (aminophylline), dyphylline (II), and Compound V were employed in both 20 and 80 mg/ml concentrations in distilled water. Compounds III and IV were used in 10 and 30 mg/ml concentrations respectively.
# dogs [7] = conditions: dog, in vivo, iv; remark: listed apart in the source
# Method: Acute Intravenous Evaluation in Dogs
# Compounds were tested in two dogs each. Animals were initially hydrated with 30 ml/kg of water, orally; then anesthetized with pentobarbital sodium, 30-35 mg/kg i.v. One femoral vein was cannulated and a constant intravenous infusion of warm saline (3 ml/min.) was begun and continued throughout the experiment. The contralateral femoral vein was also cannulated for intravenous drug administration. Urine was directly collected from bilateral ureter cannulae. After a 20-minute control collection period, the first dose of the appropriate compound was injected and urine was collected at 20-minute intervals for a period of one hour. This procedure was repeated for two additional doses of the same compound. Urine volume, pH, and sodium and potassium levels were determined for each 20-minute collection period and sums were obtained for the one-hour period after each dose. Test results, reported as successive changes in each parameter, were compared accordingly.
# [8] = prior art statement; cited from earlier work
compound,measurement,setting,value
"CCCn1c(=O)c2[nH]cnc2n(CCC)c1=O [1,3-dipropyl, 1,3-dipropyl xanthine]",Diuretic and emetic properties in words (prior art),[1],extremely potent
"Cn1c(=O)c2[nH]cnc2n(C)c1=O [Compound I, 1,3-dimethylxanthine]",ED50,[2],58 mg/kg
same,"Emetic effect, I.V. Dogs",dogs [3],None
same,"MED (minimum emetic dose), P.O. Dogs",dogs [4],128 mg/kg
same,"Emetic effect, P.O. Dogs",dogs [4]; estimated at HBD,None
same,Therapeutic Efficacy,[5],1.00
same,"Estimated Human Bronchodilator Dose (HBD), per 70 kg",human bronchodilator,200 mg/70 kg
same,"Estimated Human Bronchodilator Dose (HBD), per kg",human bronchodilator,2.9 mg/kg
same,CF (coronary flow) change,dogs [6],+21 %Δ
same,CO (cardiac output) change,dogs [6],+7 %Δ
same,CW (cardiac work) change,dogs [6],-5 %Δ
same,Cardiovascular effects (Mean),dogs [6],12
same,HR (heart rate) change,dogs [6],+11 ΔBPM
same,MAP (mean arterial pressure) change,dogs [6],-12 ΔmmHg
same,MCF (myocardial contractile force) change,dogs [6],+17 %Δ
same,TPR (total peripheral resistance) change,dogs [6],-12 %Δ
same,"Diuretic Activity, I.V. Dogs",dogs [7],Mild
same,Water solubility in words (prior art),[8],lack of water solubility
same,solubility,Solubility; water,8000 µg/mL
same,Solubility in words,"Solubility; water solubility, qualitative",poor solubility
"CCCCn1c(=O)c2[nH]cnc2n(CCCC)c1=O [1,3-dibutyl xanthine]",Diuretic and emetic properties in words (prior art),[1],extremely potent
"CCn1c(=O)c2[nH]cnc2n(CC)c1=O [1,3-diethyl, 1,3-diethyl xanthine]",Diuretic and emetic properties in words (prior art),[1],extremely potent
